Reference: patent US20100183684A1, “Oral vaccination” (Bio Life Science, priority 2002, published 2010)
Structures can show the parent of a compound that is named as a salt.

Tested on: caviar extract
Assay: Antibody induction against orally fed caviar extract in mice, measured by ELISA
Assay type: in vivo
Conditions: Balb/c mice, gastric acid reducing agent with 2 mg caviar protein extract orally, fed simultaneously or with a time delay, not against daily diet; for induction of IgE antibodies against caviar extract: ELISA OD 405/450 nm
Description: Four groups (A to D) with five Balb/c mice each were treated in the following way: • Group A: Oral administration of Zantac (ULSAL®, active agent: 20 microg ranitidine per mouse, single dose per mouse one hour before feeding […] with antigen) and antigen (2 mg caviar protein extract per mouse), • Group B: Oral administration of a mixture of Ulcogant (active agent: 2 mg sucralfate per mouse) and antigen (2 mg caviar protein extract per mouse), • Group C: Comparative example with intraperitoneal administration of caviar antigen (2 mg) and aluminum hydroxide as an adjuvant, • Group D: Comparative example with oral administration of antigen (2 mg).
The antigen used was caviar extract. As a reference regarding the caviar extract used, the publication by Untersmayr E, Schöll I, Förster-Waldl E, Walter F, Riemer A, Boltz-Nitulescu G, Scheiner O, Jensen-Jarolim E. J Allergy and Immun. 2002; 109 (6): 1034-5 is cited. The antigen contained therein has a molecular weight of 118 kDa.
The obtained results are rendered in FIG. 1. […] Groups A and B were given the antigen in conjunction with a gastric acid reducing agent orally according to the invention, while for comparison purposes group C was immunized according to a standard scheme for IgE induction, and group D was given the antigen orally without gastric acid reducing agent.

CNC(=C[N+](=O)[O-])NCCSCc1ccc(CN(C)C)o1 [Zantac, ranitidine hydrochloride]
induction of IgE antibodies against caviar extract: lasting induction
induction of IgG antibodies against caviar extract: lasting induction

aluminum sucrose hydrogen sulfate [Ulcogant]
induction of IgE antibodies against caviar extract: lasting induction
induction of IgG antibodies against caviar extract: lasting induction
